The experiment addresses MEK5 PB1 domain binding to MEKK2 (MAP3K2) mutant PB1, human. Description: mutant MEKK2 PB1-MEK5 interaction blockers – biochemical, bead multiplex flow cytometry, dose response (AID 1895). Particulars: Bead-based multiplex flow cytometry; for Ki: measured here: Ki for PB1 binding.

Structures are written as SMILES. Calls of active or inactive are those of the source. The rule behind the calls is not given here. Some results are limits rather than exact numbers.

Consider 52 molecules from PubChem BioAssay AID1895 (NMMLSC, 2009).

Take `CCOc1cccc2sc(N(CCCN(C)C)C(=O)c3ccc(S(=O)(=O)N4CCc5ccccc5C4)cc3)nc12`: the EC50 (usually the midpoint of the concentration-response curve) is 12.1 µM.

As for `CCCCCc1cc(=O)oc2c(C(CCN3CCCC(C)C3)c3ccc(OC)cc3)c(OC)cc(OC)c12` (stereo unspecified), the EC50 is 12 µM.

On to `CCN1/C(=C/c2ccc3cc(C)cc(C)c3[n+]2CC)Sc2cc(C)ccc21`, for which the EC50 was 1.77 µM and the Ki (in general, the equilibrium dissociation constant of an inhibitor or competing ligand from its target) amounted to 1.73 µM.

Take `NC(N)=N/N=C/c1ccc(OCc2ccc(Cl)cc2Cl)cc1`: the EC50 was 2.66 µM.

Take `CC(C)n1cc(CN2CCC(C(=O)Nc3cccc(-c4cccc(Cl)c4)c3)CC2)cn1`: the EC50 was > 30 µM (inactive).

Regarding `COc1ccc(C(CCNCc2ccc(OC(C)C)cc2)c2ccccc2OC)cc1` (stereo unspecified), the EC50 was > 30 µM (inactive).

As to `COc1cc2nc(N3CCN(c4cc(C)ccc4C)CC3)nc(N)c2cc1OC`, the EC50 was 5.31 µM.

Turning to `CCc1ccc(Nc2n[n+](-c3ccccc3)c(-c3ccc(OCc4ccccc4)cc3)s2)cc1`, the EC50 is > 30 µM (inactive).

Turning to `COc1ccc(Cn2c(SCc3ccccc3C)nc3cc(OC)c(OC)cc3c2=N)cc1`, the EC50 is > 30 µM (inactive).

As to `CN1C(=CC=C2C=C(I)C(=O)C(I)=C2)C(C)(C)c2ccccc21`, the EC50 is 5.14 µM and the Ki came out at 5.04 µM.

Take `COc1ccc(NC(=O)N(Cc2cc3cc(C)ccc3[nH]c2=O)CC2CCCO2)cc1` (stereo unspecified): the EC50 was > 30 µM (inactive).

For the molecule `Cc1ccnc(NC(=O)C2(c3cccs3)CCOCC2)c1`, the EC50 was > 30 µM (inactive).

Consider `O=C(c1cc(COc2c(F)cccc2F)on1)N1C[C@H]2CC[C@H]1C2`, for which the EC50 was > 30 µM (inactive).

For `CCOc1ccc(C2=C/C(=C/c3cccnc3)C(=O)O2)cc1`, the EC50 was > 30 µM (inactive).

Regarding `Cc1nc(N)sc1-c1csc(Nc2ncccn2)n1`, the EC50 was > 30 µM (inactive).

Turning to `CCN1C(c2ccccc2)=C(c2ccccc2)S/C1=C\C=C1/SC(=S)N(C)C1=O`, the EC50 was 3.35 µM and the Ki was 3.28 µM.

For the molecule `C#CCOCCOCCOCCNc1nc(N2CCN(C(=O)[C@H](Cc3cc4ccccc4[nH]3)n3cc([C@@H](N)CC(C)C)nn3)CC2)nc(N2CCN(C(=O)[C@H](Cc3cc4ccccc4[nH]3)n3cc([C@@H](N)CC(C)C)nn3)CC2)n1`, the EC50 is 1.44 µM.

For the molecule `NC(=NCCCCCCN=C(N)/N=C(\N)Nc1ccc(Cl)cc1)/N=C(\N)Nc1ccc(Cl)cc1`, the EC50 was > 30 µM (inactive).

With `C#CCOCCOCCOCCNc1nc(N2CCN(C(=O)[C@H](Cc3ccc(O)cc3)n3cc([C@@H](N)C(C)CC)nn3)CC2)nc(N2CCN(C(=O)[C@H](Cc3cc4ccccc4[nH]3)n3cc([C@@H](N)Cc4ccc(O)cc4)nn3)CC2)n1` (stereo partly specified), the EC50 was > 30 µM (inactive).

As for `CNC[C@H](CC1CCCCC1)NC[C@H](Cc1ccccc1)NCCC12CC3CC(CC(C3)C1)C2`, the EC50 is > 30 µM (inactive).

With `CCN1CCN(Cc2ccc(NC(=O)c3cc(NC(=O)c4cncc(-c5cccs5)c4)cc(OC)c3)cc2C(F)(F)F)CC1`, the EC50 was > 30 µM (inactive).

On to `COCCNC(=O)CN(c1cc(Cl)ccc1OC)S(=O)(=O)c1ccc(C)c([N+](=O)[O-])c1`, for which the EC50 was > 30 µM (inactive).

Consider `CCCCCCCCCCOC(=O)Cn1c(COc2cccc(OC)c2)[n+](C)c2ccccc21`, for which the EC50 is 21.5 µM.

As for `CCN(CC)CCNC(=O)c1ccc(NC(=O)c2cn(-c3ccccc3)nc2-c2cccs2)cc1`, the EC50 is 5.01 µM.

Regarding `C#CCOCCOCCOCCNc1nc(N2CCN(C(=O)[C@H]([C@@H](C)CC)n3cc([C@@H](N)Cc4ccc(O)cc4)nn3)CC2)nc(N2CCN(C(=O)[C@H](CCCCN)n3cc([C@@H](N)CC(C)C)nn3)CC2)n1`, the EC50 was 14.7 µM.

As for `CCC(/C=C1\Sc2ccc(OC)cc2N1CC)=C\c1sc2ccc(OC)cc2[n+]1CCCS(=O)(=O)[O-]`, the EC50 is > 30 µM (inactive).

`C#CCOCCOCCOCCNc1nc(N2CCN(C(=O)C([C@@H](C)CC)n3cc(C(N)COC(=O)C(F)(F)F)nn3)CC2)nc(N2CCN(C(=O)[C@H](CCCCN)n3cc(C(N)[C@H](C)CC)nn3)CC2)n1` (stereo partly specified): the EC50 was > 30 µM (inactive).

As to `CCc1ccc(Nc2n[n+](-c3ccccc3)c(-c3cc(OC)c(OC)cc3Br)s2)cc1`, the EC50 is 8.3 µM.

Regarding `C=CCN1C(=O)/C(=C/c2ccc(-c3ccc(F)cc3)o2)SC1=S`, the EC50 entry was “inactive”.

With `CS(=O)(=O)N1N=C(c2ccccc2)CC1c1ccc2c(c1)OCO2` (stereo unspecified), the EC50 entry was “inactive” and the Ki was found to be 0.95 µM.

In the case of `S=C(Nc1cccc(Cl)c1)N(CCCN1CCCC1)Cc1cccn1Cc1ccc(Cl)cc1`, the EC50 was 5.85 µM.

Turning to `CCCCCCOc1ccc(/C(C)=N/NC2=NCCN2)cc1[N+](=O)[O-]`, the EC50 was 14.4 µM.

On to `O=C1c2ccccc2-c2onc3ccc(NCc4ccco4)c1c23`, for which the EC50 is > 30 µM (inactive).

On to `O=C(CCCC(=O)N(CC(=O)NC1CCCC1)C1CCCC1)Nc1ccccn1`, for which the EC50 is > 30 µM (inactive).

On to `Cc1cc2ccccc2n1CCNC(=O)c1cccs1`, for which the EC50 is > 30 µM (inactive).

Take `O=C1c2ccccc2-c2onc3ccc(NCCCn4ccnc4)c1c23`: the EC50 was > 30 µM (inactive).

Consider `N#CC(C#N)=c1ccc2c(c1)N1C(c3ccccc3)=CC(c3ccccc3)C3CCCCC31N=2` (stereo unspecified), for which the EC50 is > 30 µM (inactive).

For `Cc1ccc(-c2csc(NC(=O)C[n+]3cc(-c4ccc(C)cc4)n4c3CCC4)n2)cc1`, the EC50 is > 30 µM (inactive).

Take `FC(F)(F)c1cccc(NC(=S)N(CCCN2CCCC2)Cc2cccn2Cc2ccc(Cl)cc2)c1`: the EC50 is 7.06 µM.

Regarding `CC[C@@H](C)[C@H](CNC)NC[C@@H](Cc1cccc2ccccc12)NCCc1cccc(C(F)(F)F)c1`, the EC50 was > 30 µM (inactive).

With `C#CCOCCOCCOCCNc1nc(N2CCN(C(=O)C(Cc3cc4ccccc4[nH]3)n3cc(C(N)C(C)CC)nn3)CC2)nc(N2CCN(C(=O)C(Cc3cc4ccccc4[nH]3)n3cc(C(N)C(C)CC)nn3)CC2)n1` (stereo unspecified), the EC50 is 4.1 µM.

For the molecule `CCCCCCCCCCOC(=O)Cn1c(COc2cccc(C)c2)[n+](C)c2ccccc21`, the EC50 is > 30 µM (inactive).

As for `COc1ccc(/C=N/Nc2cc(C)nc3ccc(Br)cc23)cc1`, the EC50 was 8.32 µM.

Take `CCN(CC)CCOC(=O)c1ccc(N/C=C(/C#N)c2nc(-c3ccc(OC)c(OC)c3)cs2)cc1`: the EC50 was > 30 µM (inactive).

Turning to `CN(C)c1ccc(NC(=O)CN2CCC(O)(c3ccccc3)CC2)cc1`, the EC50 is > 30 µM (inactive).

Consider `c1ccc(CNc2nc(NCc3ccccc3)c3ccccc3n2)cc1`, for which the EC50 was > 30 µM (inactive).

For `CCN1/C(=C/c2ccc3cc(C)ccc3[n+]2CC)Sc2cc(C)c(C)cc21`, the EC50 was > 30 µM (inactive).

For `COc1cccc(OC)c1-c1nn2c(-c3cc(-c4ccccc4)n[nH]3)nnc2s1`, the EC50 is > 30 µM (inactive).

Take `Cc1cc(N=Nc2ccc(C)c(N=Nc3cc(C)c(N)cc3N)c2)c(N)cc1N`: the EC50 is > 30 µM (inactive).

Consider `C#CCOCCOCCOCCNc1nc(N2CCN(C(=O)[C@H]([C@@H](C)CC)n3cc([C@@H](N)CC(C)C)nn3)CC2)nc(N2CCN(C(=O)[C@H](Cc3cc4ccccc4[nH]3)n3cc([C@@H](N)Cc4ccc(O)cc4)nn3)CC2)n1`, for which the EC50 was > 30 µM (inactive).

Take `CN(C)c1ccc(/C=C/C=C2/SC(=S)N(c3ccccc3)C2=O)cc1`: the EC50 result is “inactive”.

Turning to `CSc1cccc(NC(=S)N(CCCN2CCCC2)Cc2cccn2Cc2ccc(Cl)cc2)c1`, the EC50 was 7.1 µM.
